Measured values as given in patent US7371563B2, “Peelable and resealable devices for biochemical assays” (Surface Logix, Inc., priority 2000, dated 2008).

Target: T1, β1,4-galactosyltransferase (Bos taurus, UniProt P08037)
T1 sequence (P08037 1-402): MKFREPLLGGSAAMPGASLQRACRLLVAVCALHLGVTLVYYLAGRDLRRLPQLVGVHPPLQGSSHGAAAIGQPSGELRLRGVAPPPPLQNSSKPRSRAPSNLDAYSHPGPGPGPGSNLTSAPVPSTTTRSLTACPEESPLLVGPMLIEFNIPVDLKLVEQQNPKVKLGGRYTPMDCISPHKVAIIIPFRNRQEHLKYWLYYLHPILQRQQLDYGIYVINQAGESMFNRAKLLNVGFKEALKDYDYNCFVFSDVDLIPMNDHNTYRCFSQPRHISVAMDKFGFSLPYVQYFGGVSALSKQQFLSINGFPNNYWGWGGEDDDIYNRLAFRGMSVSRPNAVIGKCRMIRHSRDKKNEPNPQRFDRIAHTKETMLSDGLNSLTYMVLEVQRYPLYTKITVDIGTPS
Experiment: Glycosyltransferase assay on immobilized carbohydrates
Assay type: biochemical, bovine
Settings: immobilized carbohydrate; UDP [^14C] galactose, 3.5 μM; phosphorimaging
Method: FIG. 41 represents the results of a glycosyltransferase assay. The surface comprises 3 different carbohydrate substrates defined by columns and a control column (no substrate). Each row was reacted with a different concentration of β1,4-galactosyltransferase and a constant concentration of sugar donor (UDP [^14C] galactose, 3.5 μM). The reaction was detected by phosphorimaging.
Referring to FIG. 41, in the glycosyltransferase assay, various carbohydrates were immobilized using a thiol chemical tag to bond to a monolayer thiolate bearing a maleimide group. A glycosyltransferase enzyme was added to the immobilized carbohydrates. The ability of the enzyme to add radioactively labeled sugars to the immobilized carbohydrates was measured. In the glycosyltransferase assay the enzyme that was employed is bovine recombinant β 1,4-galactosyltransferase. Preferably, the enzyme is at a concentration of about 10 pM to about 100 uM. More preferably, the enzyme is at a concentration of about 100 pM to about 1 uM. […]
Detection of glycosylation of the immobilized carbohydrate substrates on the base plate was performed radiometrically. The incorporation of ^14C was quantified by exposing a storage phosphor screen to the plate and then imaging it on a Variable Mode Imager (Typhoon 8600; Molecular Dynamics, Sunnyvale, Calif.). […]

## CC(=O)N[C@H]1C(O)O[C@H](CO)[C@@H](O)[C@@H]1O (stereo partly shown) [GlcNAc]
  substrate for β1,4-galactosyltransferase: only the immobilized GlcNAc was a substrate
